Reference: patent publication US20250154686A1, “COMPOUND LIBRARY” (CHUGAI SEIYAKU KABUSHIKI KAISHA, priority 2021, published 2025)

Biological target: T1, Bcl-2 protein (Recombinant Human Bcl-2 Protein) (Homo sapiens, UniProt P10415)
T1 construct: purchased Novus Biologicals NBP2-34889
Experiment: AS-MS evaluation of binding of the Example 4 mixture library (1200 compounds/well) to Bcl-2, ASMS ratio (%)
Description: DMSO solutions (prepared into approximately 0.58 mM based on calculation from the average molecular weight of each mixture) of 12 types of mixtures that could each contain 100 compounds, i.e., mixAI-B4J-01, mixAI-B1M-01, mixAI-B1K-01, mixAI-BIO-01, mixAI-B1A-01, mixAI-B3A-01, mixAI-B21-01, mixAI-B2L-01, mixAI-B2N-01, mixAI-B2A-01, mixAI-B2Q-01, and mixAI-B2R-01, shown in Table AI-03-B4J-01, Table AI-03-B1M-01, Table AI-03-B1K-01, Table AI-03-B10-01, Table AI-03-B1A-01, Table AI-03-B3A-01, Table AI-03-B21-01, Table AI-03-B2L-01, Table AI-03-B2N-01, Table AI-03-B2A-01, Table AI-03-B2Q-01, and Table AI-03-B2R-01 described in Example 4, were respectively dispensed to a total of 12 wells of MICROPLATE, 96-well, PP, V-BOTTOM (Greiner Bio-One International GmbH, 651201). 70 nL each from the 12 wells was collected into any one well using LABCYTE ECHO® 555 acoustic dispensing system (Beckman Coulter, Inc.) to prepare a sample solution in a mixed state of 1200 compounds (the presence of 1152 compounds was already identified when the mixtures were prepared in Example 4). Further, Bcl-2 protein (Novus Biologicals, NBP2-34889, Recombinant Human Bcl-2 Protein, Lot E60145051) (19.2 μL) prepared at 20.9 μM in advance using a Tris-HCl buffer (25 mM Tris-HCl, pH 7.4, 150 mM NaCl, 0.025% Tween-20, and 1 mM DTT) was added to the well containing the dispensed 1200 compounds (the presence of 1152 compounds was already identified when the mixtures were prepared in Example 4) (final compound concentration: 20 nM, final Bcl-2 concentration: 20 μM), and the plate was incubated at 23° C. for 1 hour in the dark. Subsequently, 200 μL of an assay buffer (25 mM Tris-HCl, pH 7.4, 150 mM NaCl, 0.025% Tween-20, and 1 mM DTT) was centrifuged three times at 2000×G at 4° C. for 2 minutes using 96-well MacroSpin column, P-2 Material (Harvard Bioscience, Inc., 74-5655) that had been allowed to swell to condition the 96-well MacroSpin column. Subsequently, 20 μL of the sample thus incubated was added to the 96-well MacroSpin column, P-2 Material after the completion of conditioning, and SEC treatment was performed by centrifugation at 2000×G for 2 minutes. 32 μL of a 1:1 mixed solution of acetonitrile and methanol (LC/MS grade, FUJIFILM Wako Pure Chemical Corp.) was added to a flow-through liquid from SEC, and the mixture was centrifuged at 1800×G at 4° C. for 5 minutes. The supernatant was used as analysis sample ASMS (A). By a similar operation, a sample prepared at 1200 compounds/well and supplemented with only a Tris-HCl buffer containing no Bcl-2 protein was incubated under the same conditions as above, and the same organic solvent as above was added thereto without 96-well MacroSpin column treatment. A supernatant obtained by a centrifugation operation was used as STD (B). Next, by a similar operation, a sample prepared at 1200 compounds/well and supplemented with only a Tris-HCl buffer containing no Bcl-2 protein was incubated under the same conditions as above and treated with 96-well MacroSpin column in the same manner as above, and the same organic solvent as above was added thereto. A supernatant obtained by a centrifugation operation was used as BK (C). These samples were measured by reverse-phase LC/MS.
Then, the samples A, B and C were analyzed for the 1200 compounds using TraceFinder 5.1 (Thermo Fisher Scientific Inc.) and CHANCE Software (in-house), and an ASMS ratio (%) was calculated according to the following expression.
Although m/z of the MS peaks was confirmed down to four decimal places, 0 at the decimal level may be omitted in the description in Table AJ-01. For example, “587.0000” is also referred to as “587”, “587.1000” is also referred to as “587.1”, “587.1200” is also referred to as “587.12”, and “587.1230” is also referred to as “587.123”.

[1] = replicate n = 1, mixture library, value belongs to the MS peak assigned to the compound
[2] = replicate n = 2, mixture library, value belongs to the MS peak assigned to the compound
[3] = AS-MS, mixture of 1200 compounds/well, Bcl-2 protein, replicate n = 1
[4] = AS-MS, mixture of 1200 compounds/well, Bcl-2 protein, replicate n = 2
[5] = AS-MS, Example 4 mixture library, Bcl-2, replicate n = 1
[6] = AS-MS, Example 4 mixture library, Bcl-2, replicate n = 2

T1 sequence (P10415 whole entry): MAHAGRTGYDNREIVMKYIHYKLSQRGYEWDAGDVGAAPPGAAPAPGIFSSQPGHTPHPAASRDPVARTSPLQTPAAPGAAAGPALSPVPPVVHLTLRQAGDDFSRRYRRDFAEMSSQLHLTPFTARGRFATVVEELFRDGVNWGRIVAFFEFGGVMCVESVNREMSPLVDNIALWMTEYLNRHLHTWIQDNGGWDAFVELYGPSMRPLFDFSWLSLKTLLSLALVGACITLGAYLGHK

Compound	ASMS ratio (%) n = 1 [1] [%]	ASMS ratio (%) n = 2 [2] [%]	ASMS ratio (%) n = 1 [5] [%]	ASMS ratio (%) n = 2 [6] [%]	also measured
CCOc1cncc(-c2cc(C(=O)N3CCN(c4ccc(C(=O)NS(C)(=O)=O)cc4)CC3)cc(C(F)(F)F)c2)c1 [Compound B2I040-01, 4-[4-[3-(5-Ethoxypyridin-3-yl)-5-(trifluoromethyl)benzoyl]piperazin-1-yl]-N-methylsulfonylbenzamide]	0.0	−2.7			
4-[4-[[2-[2-(3-Ethoxyphenyl)ethynyl]phenyl]methyl]piperazin-1-yl]-N-propylbenzamide [Compound B1M052-01]					ASMS ratio (%) n = 1 [3]: 27.6%; ASMS ratio (%) n = 2 [4]: 20.2%
CCCNC(=O)c1ccc(N2CCN(C(=O)c3ccc(-c4cncc(OCC)c4)c(C)c3)CC2)nn1 [Compound B1M004-01]					ASMS ratio (%) n = 1 [3]: 0.0%; ASMS ratio (%) n = 2 [4]: 0.0%
CCOc1cncc(-c2ccccc2CN2CCN(c3ccc(C(=O)NS(=O)(=O)CCC(F)(F)F)cc3)CC2)c1 [Compound B2N046-01, 4-[4-[[2-(5-Ethoxypyridin-3-yl)phenyl]methyl]piperazin-1-yl]-N-(3,3,3-trifluoropropylsulfonyl)benzamide]			0.0	−1.2	
CCOc1cncc(-c2cc(C(=O)N3CCN(c4ccc(C(=O)NS(=O)(=O)C(C)(C)C)cc4)CC3)cc(C(F)(F)F)c2)c1 [Compound B2L040-01, N-tert-Butylsulfonyl-4-[4-[3-(5-ethoxypyridin-3-yl)-5-(trifluoromethyl)benzoyl]piperazin-1-yl]benzamide]	−0.2	1.0			
CCOc1cccc(-c2csc(CN3CCN(c4ccc(C(=O)NS(=O)(=O)c5ccc(NCCSc6ccccc6)c(C(F)(F)F)c5)cc4)CC3)c2)c1 [Compound B2R067-01, 4-[4-[[4-(3-Ethoxyphenyl)thiophen-2-yl]methyl]piperazin-1-yl]-N-[4-(2-phenylsulfanylethylamino)-3-(trifluoromethyl)phenyl]sulfonylbenzamide]			8.0	0.0	
CCOc1cncc(-c2cc(OC)c(CN3CCN(c4ccc(C(=O)N(CC)CC)cc4)CC3)c(OC)c2)c1 [Compound B4J060-01, 4-[4-[[4-(5-Ethoxypyridin-3-yl)-2,6-dimethoxyphenyl]methyl]piperazin-1-yl]-N,N-diethylbenzamide]					ASMS ratio (%) n = 1 (Example 4 mixture library, 1200 compounds/well, Bcl-2 protein, replicate n = 1, value belongs to the MS peak assignable to the compound): 0.0%; ASMS ratio (%) n = 2 (Example 4 mixture library, 1200 compounds/well, Bcl-2 protein, replicate n = 2, value belongs to the MS peak assignable to the compound): 0.0%
CCOc1cccc(-c2ccc(CN3CCN(c4ccc(C(=O)NS(=O)(=O)C(C)(C)C)nn4)CC3)c(CC)c2)c1 [Compound B2L075-01]	0.0	33.9			
CCCNC(=O)c1ccc(N2CCN(Cc3cc(OCC)cc(-c4cncc(OCC)c4)c3)CC2)nn1 [Compound B1M012-01, 6-[4-[[3-Ethoxy-5-(5-ethoxypyridin-3-yl)phenyl]methyl]piperazin-1-yl]-N-propylpyridazine-3-carboxamide]					ASMS ratio (%) n = 1 [3]: −3.5%; ASMS ratio (%) n = 2 [4]: −2.3%
CCCNC(=O)c1ccc(N2CCN(C(C)c3ccc(-c4cncc(OCC)c4)cc3)CC2)cc1 (centres unmarked) [Compound B1M098-01]					ASMS ratio (%) n = 1 [3]: 0.9%; ASMS ratio (%) n = 2 [4]: 0.3%
CCOc1cccc(-c2ccc(CN3CCN(c4ccc(C(=O)NS(C)(=O)=O)nn4)CC3)c(OC)c2)c1 [Compound B2I079-01, 6-[4-[[4-(3-Ethoxyphenyl)-2-methoxyphenyl]methyl]piperazin-1-yl]-N-methylsulfonylpyridazine-3-carboxamide]	0.0	0.0			
CCOc1cncc(-c2cnn(-c3cc(C(=O)N4CCN(c5ccc(C(=O)NS(=O)(=O)c6ccc(NCCSc7ccccc7)c(C(F)(F)F)c6)nn5)CC4)cc(C(F)(F)F)c3)c2)c1 [Compound B2R022-01, 6-[4-[3-[4-(5-Ethoxypyridin-3-yl)pyrazol-1-yl]-5-(trifluoromethyl)benzoyl]piperazin-1-yl]-N-[4-(2-phenylsulfanylethylamino)-3-(trifluoromethyl)phenyl]sulfonylpyridazine-3-carboxamide]			14.5	15.8	
CCOc1cncc(-c2csc(CN3CCN(c4ccc(C(=O)NS(=O)(=O)CCC(F)(F)F)nn4)CC3)c2)c1 [Compound B2N094-01, 6-[4-[[4-(5-Ethoxypyridin-3-yl)thiophen-2-yl]methyl]piperazin-1-yl]-N-(3,3,3-trifluoropropylsulfonyl)pyridazine-3-carboxamide]			0.0	0.0	
CCOc1cncc(-c2ccccc2CN2CCN(c3ccc(C(=O)NS(=O)(=O)C(C)(C)C)cc3)CC2)c1 [Compound B2L046-01]	0.0	0.0			
CCOc1cccc(-c2cc(C(=O)N3CCN(c4ccc(C(=O)NS(=O)(=O)c5ccc(NCCSc6ccccc6)c(C(F)(F)F)c5)nn4)CC3)cc(C(F)(F)F)c2)c1 [Compound B2R017-01, 6-[4-[3-(3-Ethoxyphenyl)-5-(trifluoromethyl)benzoyl]piperazin-1-yl]-N-[4-(2-phenylsulfanylethylamino)-3-(trifluoromethyl)phenyl]sulfonylpyridazine-3-carboxamide]			32.9	27.2	
CCOc1cccc(-c2cc(C(=O)N3CCN(c4ccc(C(=O)NS(=O)(=O)C(C)(C)C)cc4)CC3)cc(C(C)(C)C)c2)c1 [Compound B2L037-01, 4-[4-[3-tert-Butyl-5-(3-ethoxyphenyl)benzoyl]piperazin-1-yl]-N-tert-butylsulfonylbenzamide]	0.0	0.0			
CCOc1cncc(-c2csc(CN3CCN(c4ccc(C(=O)NS(=O)(=O)C(C)(C)C)nn4)CC3)c2)c1 [Compound B2L094-01, N-tert-Butylsulfonyl-6-[4-[[4-(5-ethoxypyridin-3-yl)thiophen-2-yl]methyl]piperazin-1-yl]pyridazine-3-carboxamide]			0.2	1.8	
CCOc1cncc(C#Cc2ccccc2CN2CCN(c3ccc(C(=O)NS(C)(=O)=O)nn3)CC2)c1 [Compound B2I096-01, 6-[4-[[2-[2-(5-Ethoxypyridin-3-yl)ethynyl]phenyl]methyl]piperazin-1-yl]-N-methylsulfonylpyridazine-3-carboxamide]	0.0	0.0			
CCOc1cncc(-c2ccc(CN3CCN(c4ccc(C(=O)NS(=O)(=O)c5ccc(NCCSc6ccccc6)c(C(F)(F)F)c5)cc4)CC3)c3ccccc23)c1 [Compound B2R066-01, 4-[4-[[4-(5-Ethoxypyridin-3-yl)naphthalen-1-yl]methyl]piperazin-1-yl]-N-[4-(2-phenylsulfanylethylamino)-3-(trifluoromethyl)phenyl]sulfonylbenzamide]			19.8	−10.7	
